Results as given in patent publication US6166290A, “Glutathione-S-conjugate transport in plants” (The Trustees of the University of Pennsylvania, priority 1997, dated 2000).

Columns and labels:
[1] = biological target: T1, YCF1 (vacuolar membrane vesicles purified from DTY165 cells) (Saccharomyces cerevisiae, UniProt P39109); assay: [3H]DNP-GS uptake by vacuolar membrane vesicles purified from DTY165 cells; format: biochemical
T1 construct: endogenous in cells; host or cells: S. cerevisiae DTY165 (wild type YCF1), vacuolar membrane vesicles
T1 sequence (P39109 whole entry): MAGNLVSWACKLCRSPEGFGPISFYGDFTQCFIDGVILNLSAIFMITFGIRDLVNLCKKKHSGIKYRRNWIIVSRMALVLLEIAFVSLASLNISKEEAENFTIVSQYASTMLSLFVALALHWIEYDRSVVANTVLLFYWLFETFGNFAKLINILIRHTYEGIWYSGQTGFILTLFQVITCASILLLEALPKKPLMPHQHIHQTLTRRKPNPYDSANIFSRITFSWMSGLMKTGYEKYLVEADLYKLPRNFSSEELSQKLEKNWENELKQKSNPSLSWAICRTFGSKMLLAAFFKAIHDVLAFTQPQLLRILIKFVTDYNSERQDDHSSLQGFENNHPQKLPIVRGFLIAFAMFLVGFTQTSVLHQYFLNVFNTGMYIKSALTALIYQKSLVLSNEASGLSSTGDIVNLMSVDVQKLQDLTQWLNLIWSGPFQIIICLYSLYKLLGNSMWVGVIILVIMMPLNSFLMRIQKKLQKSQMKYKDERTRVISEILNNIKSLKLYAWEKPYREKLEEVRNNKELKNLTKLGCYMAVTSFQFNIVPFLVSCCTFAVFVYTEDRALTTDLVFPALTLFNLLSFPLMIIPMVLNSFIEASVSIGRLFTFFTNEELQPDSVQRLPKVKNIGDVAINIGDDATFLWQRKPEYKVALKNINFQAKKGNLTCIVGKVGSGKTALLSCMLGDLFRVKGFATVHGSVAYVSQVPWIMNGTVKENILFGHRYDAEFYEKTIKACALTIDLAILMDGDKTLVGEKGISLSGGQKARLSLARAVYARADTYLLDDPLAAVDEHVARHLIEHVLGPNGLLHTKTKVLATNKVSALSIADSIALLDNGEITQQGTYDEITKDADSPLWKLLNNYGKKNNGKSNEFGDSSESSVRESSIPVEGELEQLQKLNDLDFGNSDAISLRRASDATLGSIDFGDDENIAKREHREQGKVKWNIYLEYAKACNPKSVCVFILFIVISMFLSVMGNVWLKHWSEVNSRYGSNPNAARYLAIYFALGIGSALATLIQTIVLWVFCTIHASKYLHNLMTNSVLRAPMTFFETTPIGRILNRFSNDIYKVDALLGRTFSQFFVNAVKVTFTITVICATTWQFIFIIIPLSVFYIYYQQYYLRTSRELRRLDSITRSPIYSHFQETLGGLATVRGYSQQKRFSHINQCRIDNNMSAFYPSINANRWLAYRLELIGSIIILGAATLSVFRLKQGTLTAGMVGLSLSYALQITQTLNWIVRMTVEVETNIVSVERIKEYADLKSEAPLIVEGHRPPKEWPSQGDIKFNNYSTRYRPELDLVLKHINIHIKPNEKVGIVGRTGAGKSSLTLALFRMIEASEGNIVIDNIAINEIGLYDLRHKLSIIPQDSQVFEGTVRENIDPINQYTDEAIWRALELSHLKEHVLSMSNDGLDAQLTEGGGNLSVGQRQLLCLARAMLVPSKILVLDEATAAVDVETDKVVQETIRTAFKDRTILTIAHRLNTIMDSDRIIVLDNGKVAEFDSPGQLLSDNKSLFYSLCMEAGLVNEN
In short: (§1)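 ATP-dependent [3H]DNP-GS (66.2 μM) transport measured by filtration and scintillation counting of Ficoll-purified yeast vacuolar vesicles (DTY165 wild type; DTY167 ycf1Δ), 1–60 min at 25 °C in sorbitol/Tris-Mes pH 8.0 with 3 mM ATP, 3 mM MgSO4 and gramicidin-D. Nonenergized uptake without ATP/Mg2+.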

barley vacuoles = conditions: cited from earlier work
[2] = tested on: vacuolar membrane vesicles purified from DTY167 cells (ycf1Δ mutant); format: biochemical, Saccharomyces cerevisiae; conditions: 5 μM gramicidin D, GSH, GSSG 1 mM, GS-conjugates 100 μM
In short: as §1

AtMRP2 = biological target: T2, AtMRP2 (Arabidopsis thaliana, UniProt Q42093); assay: AtMRP2-dependent uptake by membrane vesicles from pYES3-AtMRP2-transformed DTY168 cells; format: biochemical; conditions: MgATP-dependent, uncoupler-insensitive
T2 construct: S. cerevisiae DTY168 (ycf1 null) vacuolar-enriched membrane vesicles
T2 sequence (Q42093 whole entry): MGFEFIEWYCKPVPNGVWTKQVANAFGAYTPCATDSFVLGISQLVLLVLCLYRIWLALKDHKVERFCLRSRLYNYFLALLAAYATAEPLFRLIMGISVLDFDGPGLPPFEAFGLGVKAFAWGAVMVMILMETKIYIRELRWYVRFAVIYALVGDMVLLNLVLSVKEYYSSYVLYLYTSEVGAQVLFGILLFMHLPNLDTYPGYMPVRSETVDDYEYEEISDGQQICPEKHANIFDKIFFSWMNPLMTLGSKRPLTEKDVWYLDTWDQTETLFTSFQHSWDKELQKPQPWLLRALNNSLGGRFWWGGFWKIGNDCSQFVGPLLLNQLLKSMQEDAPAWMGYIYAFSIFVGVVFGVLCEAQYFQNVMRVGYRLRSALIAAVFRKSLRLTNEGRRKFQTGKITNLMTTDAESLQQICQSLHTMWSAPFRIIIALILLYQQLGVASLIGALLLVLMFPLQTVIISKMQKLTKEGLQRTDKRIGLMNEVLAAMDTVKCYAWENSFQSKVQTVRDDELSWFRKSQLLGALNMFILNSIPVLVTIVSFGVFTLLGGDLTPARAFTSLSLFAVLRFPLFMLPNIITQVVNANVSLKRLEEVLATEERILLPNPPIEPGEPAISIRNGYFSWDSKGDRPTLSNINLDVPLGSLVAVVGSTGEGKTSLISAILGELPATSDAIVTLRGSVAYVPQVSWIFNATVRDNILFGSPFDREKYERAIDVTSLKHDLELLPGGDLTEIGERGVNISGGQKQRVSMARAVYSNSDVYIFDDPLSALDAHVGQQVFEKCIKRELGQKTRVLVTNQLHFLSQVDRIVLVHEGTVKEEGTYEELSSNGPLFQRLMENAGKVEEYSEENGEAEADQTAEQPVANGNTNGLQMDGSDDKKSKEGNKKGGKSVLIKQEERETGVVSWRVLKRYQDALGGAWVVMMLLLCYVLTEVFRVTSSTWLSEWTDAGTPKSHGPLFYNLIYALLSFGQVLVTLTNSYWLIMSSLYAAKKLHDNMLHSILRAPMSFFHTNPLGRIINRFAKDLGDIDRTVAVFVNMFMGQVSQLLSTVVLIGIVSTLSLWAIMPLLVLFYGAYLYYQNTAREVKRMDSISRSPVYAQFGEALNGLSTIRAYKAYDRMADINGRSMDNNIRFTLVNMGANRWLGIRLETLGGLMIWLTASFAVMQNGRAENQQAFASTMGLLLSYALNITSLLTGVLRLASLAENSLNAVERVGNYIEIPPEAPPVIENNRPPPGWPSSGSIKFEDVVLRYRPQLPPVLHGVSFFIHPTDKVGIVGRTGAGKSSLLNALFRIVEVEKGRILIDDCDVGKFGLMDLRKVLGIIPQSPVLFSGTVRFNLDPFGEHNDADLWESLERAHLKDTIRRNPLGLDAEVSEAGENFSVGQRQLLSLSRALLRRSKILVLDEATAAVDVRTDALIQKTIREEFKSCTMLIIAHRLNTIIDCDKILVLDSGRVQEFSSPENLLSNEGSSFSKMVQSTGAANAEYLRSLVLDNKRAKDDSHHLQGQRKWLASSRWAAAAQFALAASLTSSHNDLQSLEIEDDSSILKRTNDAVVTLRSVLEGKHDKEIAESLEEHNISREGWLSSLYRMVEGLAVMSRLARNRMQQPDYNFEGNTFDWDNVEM
Protocol: (§2) Cells were grown and vacuolar membrane-enriched vesicles were prepared as described (Kim et al., 1995, J Biol. Chem. 270:2630-2635-). […] Uptake was terminated by the addition of 1 ml ice-cold wash medium (400 mM sorbitol/3 mM Tris-Mes, pH 8.0) and vacuum filtration of the suspension through prewetted Millipore HA cellulose nitrate filters (pore size 0.45 μm). The filters were rinsed twice with wash medium, and the retained radioactivity was determined by liquid scintillation counting. Nonenergized uptake was estimated by the same procedure except that ATP was omitted from the uptake medium.
Membranes from DTY168/pYES3-AtMRP2 cells were incubated for 10 minutes in standard uptake medium containing 61.3 μM [^3 H]DNP-GS after which time 200 mM glucose and 50 units/ml hexokinase (Type F-300 from baker's yeast) were added. […] Control samples were treated identically except that no additions were made after the initial 10 minute incubation period.

AtMRP1 = biological target: T3, AtMRP1 (Arabidopsis thaliana, UniProt Q9C8G9); assay: AtMRP1-dependent uptake by membrane vesicles from pYES3-AtMRP1-transformed DTY168 cells; format: biochemical; conditions: MgATP-dependent, uncoupler-insensitive
T3 construct: S. cerevisiae DTY168 (ycf1 null) vacuolar-enriched membrane vesicles
T3 sequence (Q9C8G9 whole entry): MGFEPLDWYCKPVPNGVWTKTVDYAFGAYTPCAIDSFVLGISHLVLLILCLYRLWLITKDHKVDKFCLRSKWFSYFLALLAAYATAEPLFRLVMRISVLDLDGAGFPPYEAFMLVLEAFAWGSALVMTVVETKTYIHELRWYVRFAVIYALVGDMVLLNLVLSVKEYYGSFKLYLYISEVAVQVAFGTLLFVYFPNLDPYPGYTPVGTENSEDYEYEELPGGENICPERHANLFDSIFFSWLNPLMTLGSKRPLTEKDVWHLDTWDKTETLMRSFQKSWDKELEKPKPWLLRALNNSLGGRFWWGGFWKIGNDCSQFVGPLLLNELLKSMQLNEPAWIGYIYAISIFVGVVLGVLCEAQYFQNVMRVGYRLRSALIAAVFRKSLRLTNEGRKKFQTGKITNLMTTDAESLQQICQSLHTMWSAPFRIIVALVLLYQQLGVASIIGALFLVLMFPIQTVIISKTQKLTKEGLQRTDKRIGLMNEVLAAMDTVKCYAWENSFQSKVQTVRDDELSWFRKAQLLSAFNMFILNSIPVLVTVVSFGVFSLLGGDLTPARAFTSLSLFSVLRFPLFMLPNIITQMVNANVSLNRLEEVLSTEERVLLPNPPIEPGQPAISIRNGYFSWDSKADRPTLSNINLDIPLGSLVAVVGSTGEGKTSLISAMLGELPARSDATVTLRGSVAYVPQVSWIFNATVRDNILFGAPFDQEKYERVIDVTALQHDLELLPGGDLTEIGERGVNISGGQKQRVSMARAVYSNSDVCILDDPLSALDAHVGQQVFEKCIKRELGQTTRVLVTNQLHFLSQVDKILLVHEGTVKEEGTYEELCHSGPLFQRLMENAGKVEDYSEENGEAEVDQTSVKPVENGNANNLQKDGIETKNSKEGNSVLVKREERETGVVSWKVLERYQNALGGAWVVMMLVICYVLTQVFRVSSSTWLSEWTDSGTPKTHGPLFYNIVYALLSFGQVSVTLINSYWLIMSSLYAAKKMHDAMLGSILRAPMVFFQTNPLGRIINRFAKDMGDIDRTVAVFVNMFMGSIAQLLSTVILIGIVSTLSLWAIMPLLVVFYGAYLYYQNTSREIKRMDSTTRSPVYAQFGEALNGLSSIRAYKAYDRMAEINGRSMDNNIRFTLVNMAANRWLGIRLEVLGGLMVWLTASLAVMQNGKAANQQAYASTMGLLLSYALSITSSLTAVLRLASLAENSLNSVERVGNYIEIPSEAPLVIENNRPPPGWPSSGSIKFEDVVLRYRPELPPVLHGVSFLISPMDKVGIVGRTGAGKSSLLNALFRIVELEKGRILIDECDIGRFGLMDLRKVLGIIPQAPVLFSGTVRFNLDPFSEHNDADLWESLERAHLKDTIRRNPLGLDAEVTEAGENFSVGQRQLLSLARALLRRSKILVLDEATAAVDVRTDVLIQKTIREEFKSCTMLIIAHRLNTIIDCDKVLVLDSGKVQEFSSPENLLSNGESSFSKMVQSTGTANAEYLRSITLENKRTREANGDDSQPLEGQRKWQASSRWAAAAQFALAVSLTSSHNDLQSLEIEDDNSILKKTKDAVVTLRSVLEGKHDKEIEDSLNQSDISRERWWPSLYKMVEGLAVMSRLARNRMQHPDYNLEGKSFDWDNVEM
Protocol: S. cerevisiae strain DTY168 (MATα his6, leu2-3, -112, ura3-52 ycf1::hisG) was transformed with pYES3-AtMRP1 or empty vector lacking the AtMRP1 insert (pYES3) by the LiOAc/PEG method (Giest et al., 1991, Yeast 7:253-263) and selected for uracil prototrophy by plating on AHC medium containing tryptophan (Kim et al., 1994, supra).
For the preparation of membrane vesicles, 15 ml volumes of stationary phase cultures of the transformants were diluted into 1 L of fresh AHC medium and grown to an OD600 nm of about 1.2. Membrane vesicles were purified as described herein and in Kim et al. (1995, supra).
[…] μl reaction volumes containing 3 mM ATP, 3 mM MgSO4, 5 μM gramicidin-D, 10 mM creatine phosphate, 16 units/ml creatine kinase, 50 mM KCl, 1 mg/ml BSA, 400 mM sorbitol, 25 mM Tris-Mes ([…]).
as §2

YCF1-specific mRNA = conditions: 24 hour pretreatment; CdSO4 200 μM, CDNB 150 μM
[3] = tested on: vacuolar membrane vesicles purified from DTY167 cells (ycf1Δ mutant); format: biochemical, Saccharomyces cerevisiae
Protocol: In experiments involving cadmium transport, dithiothreitol and EGTA were removed from the suspension medium to prevent the attenuation of YCF1-dependent Cd^2+ transport otherwise exerted by these compounds. Vesiculated vacuolar membranes were subjected to three cycles of 50-fold dilution into simplified suspension medium (1.1 M glycerol, 5 mM Tris-Mes, pH 8.0), centrifugation at 100,000× g for 35 minutes and resuspension in the same medium before use.
Singly radiolabeled ^109 Cd.GSn and doubly radio-labeled ^109 Cd[^3 H].GS^n complexes were prepared by sequential gel-filtrationand anion-exchange chromatography of the reaction products generated by incubating 20 mM ^109 CdSO4 (78.4 mCi/mmol) with 40 mM GSH or 40 mM [^3 H]GSH (240 mCi/mmol) in 15 ml 10 mM phosphate buffer (pH 8.0) containing 150 mM KNO3 at 45° C. for 24 hours. For gel-filtration, 2 ml aliquots of the reaction mixture were applied to a column (40×1.5 cm ID) packed with water-equilibrated Sephadex G-1 5, eluted with deionized water and ^109 Cd and/or ^3 H in the fractions was measured by liquid scintillation counting. The fractions encompassed by each of the two ^109 Cd.GSn peaks identified were pooled, lyophilized and redissolved in 4 ml of loading buffer (5 mM Tris-Mes, pH 8.0). For anion-exchange chromatography, 0.5 ml aliquots of the resuspended lyophilizates from gel-filtration chromatography were applied to a Mono-Q HR5/5 column (Pharmacia) equilibrated with the same buffer. Elution was with a linear gradient of NaCl (0.5 ml/minute; 0-500 mM) dissolved in loading buffer. The individual fractions corresponding to the major peaks of ^109 Cd obtained from the Mono-Q column (one each for the peaks resolved by gel-filtration chromatography) were pooled, lyophilized and resuspended in 4 ml deionized water after liquid scintillation counting.
MgATP-energized, uncoupler-insensitive ^109 Cd^2+ uptake by vacuolar membrane vesicles was measured at 25° C. in 200 μl reaction volumes containing 3 mM ATP, 3 mM MgSO4, 5 μM gramicidin-D, 10 mM creatine phosphate, 16 units/ml creatine kinase, 50 mM KCl, 400 mM sorbitol, 25 mM Tris-Mes (pH 8.0) and the indicated concentrations of ^109 CdSO4, GSH or ^109 Cd- and/or ^3 H-labeled purified Cd.GSn complexes as described herein except that the wash media contained 100 μM CdSO4 in addition to sorbitol (400 mM) and Tris-Mes (3 mM, pH 8.0).

[4] = biological target: T1, YCF1 (vacuolar membrane vesicles purified from DTY165 cells); assay: biochemical; format: biochemical
In short: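 Vacuolar vesicles from wild-type (DTY165) or ycf1Δ (DTY167) yeast, washed free of DTT/EGTA into glycerol/Tris-Mes pH 8.0. MgATP-energized, uncoupler-insensitive uptake of 109Cd2+, GSH or purified radiolabeled Cd·GSn complexes measured at 25°C. Medium: 3 mM ATP/MgSO4, ATP-regenerating system, 5 μM gramicidin-D, Tris-Mes pH 8.0; washes contained 100 μM CdSO4.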

[5] = 80 μM 109CdSO4, compound 1 mM, 5 μM gramicidin-D
[6] = 3 mM MgATP, 80 μM 109CdSO4, compound 1 mM, 5 μM gramicidin-D

| Structure (SMILES) | MgATP-dependent, uncoupler-insensitive DNP-GS uptake plus compound ([1]; 5 μM gramicidin D, GSH, GSSG 1 mM, GS-conjugates 100 μM) [nmol/mg/10 minutes] | MgATP-dependent, uncoupler-insensitive DNP-GS uptake as percentage of control ([1]; 5 μM gramicidin D, GSH, GSSG 1 mM, GS-conjugates 100 μM, 10 min) [%] | inhibition at 100 µM ([1]; 100 μM compound) [%] | Km estimated previously (barley vacuoles) [µM] | MgATP-dependent, uncoupler-insensitive DNP-GS uptake plus compound [2] [nmol/mg/10 minutes] | MgATP-dependent, uncoupler-insensitive DNP-GS uptake as percentage of control ([2]; 10 min) [%] | Vmax for AtMRP2-dependent uptake (AtMRP2) [nmol/mg/10 min] | Vmax for AtMRP2-dependent uptake (AtMRP2; listed as metolachlor-GS) [nmol/mg/10 min] | Vmax for AtMRP1-dependent uptake (AtMRP1) [nmol/mg/10 min] | Vmax for AtMRP1-dependent uptake (AtMRP1; listed as metolachlor-GS) [nmol/mg/10 min] | increase of YCF1-specific mRNA level (YCF1-specific mRNA) [fold] | increase of [3H]DNP-GS uptake into vesicles from pretreated cells ([1]; 24 hour pretreatment, CdSO4 200 μM, CDNB 150 μM, 66.2 μM DNP-GS) [fold] | 109Cd uptake, -MgATP [3, 5] [nmol/mg/10 minutes] | MgATP-dependent, uncoupler-insensitive 109Cd2+ uptake rate ([3]; 80 μM Cd2+, 1 mM GSH) [nmol/mg/min] | 109Cd uptake, +MgATP [3, 6] [nmol/mg/10 minutes] | 109Cd uptake, -MgATP [4, 5] [nmol/mg/10 minutes] | MgATP-dependent, uncoupler-insensitive 109Cd2+ uptake rate ([4]; 80 μM Cd2+, 1 mM GSH) [nmol/mg/min] | 109Cd uptake, +MgATP [4, 6] [nmol/mg/10 minutes] | increase of 109Cd.GS2 uptake into vesicles from pretreated cells ([4]; 24 hour pretreatment, CdSO4 200 μM, CDNB 150 μM, 50 μM Cd.GS2) [fold] |
| --- | --- | --- | --- | --- | --- | --- | --- | --- | --- | --- | --- | --- | --- | --- | --- | --- | --- | --- | --- |
| CCc1cccc(C)c1N(C(=O)CSC[C@H](NC(=O)CC[C@H](N)C(=O)O)C(=O)NCC(=O)O)C(C)COC (stereo partly shown) [Metolachlor-GS] | 27.6 ± 0.9 | 57.7 | ~50 | 40 to 60 | 4.8 ± 0.7 | 73.8 | 136.0 ± 28.1 | 136.0±28.1 | 17.5 ± 5.2 | 17.5±5.2 | – | – | – | – | – | – | – | – | – |
| [Cd+2] [Cd^2+] | – | – | – | – | – | – | – | – | – | – | 1.9 | 1.6 | 4.3 ± 1.3 | 0.8 | 4.6 ± 2.1 | 5.8 ± 2.4 | 4.5 | 5.6 ± 1.5 | 1.4 |
